Laboratory results: the supplement of paper PMC10307832

Experiments:
Test in all cases: relative viability (nuclei count vs DMSO), 5 days (fraction); higher = more cells survive
IPA-3 + Luminespib = compound: C1=CC=C2C(=C1)C=CC(=C2SSC3=C(C=CC4=CC=CC=C43)O)O [IPA-3] + CCNC(=O)c1noc(-c2cc(C(C)C)c(O)cc2O)c1-c1ccc(CN2CCOCC2)cc1 [Luminespib] (partner 0.01 µM)
Outline: (§1)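 Lung cancer cell lines were pin-tool dosed in 1536-well plates on the day after seeding, with either a lone drug or a fixed anchor-drug dose plus five library-drug doses (not always all listed) in √10 steps. Nuclei were counted on 4× images after 5 days. Relative viability is the ratio of treated-well to vehicle-well nuclei counts, with each value a median of duplicate plates.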

IPA-3 + Dasatinib = compound: C1=CC=C2C(=C1)C=CC(=C2SSC3=C(C=CC4=CC=CC=C43)O)O [IPA-3] + Cc1nc(Nc2ncc(C(=O)Nc3c(C)cccc3Cl)s2)cc(N2CCN(CCO)CC2)n1 [Dasatinib] (partner 0.075 µM)
Outline: as §1

Doramapimod + OSI-027 = compound: Cc1ccc(-n2nc(C(C)(C)C)cc2NC(=O)Nc2ccc(OCCN3CCOCC3)c3ccccc23)cc1 [Doramapimod] + COc1cccc2cc(-c3nc([C@H]4CC[C@H](C(=O)O)CC4)n4ncnc(N)c34)[nH]c12 [OSI-027] (partner 0.5 µM)
Outline: as §1

RAF265 + Vorinostat = compound: Cn1c(Nc2ccc(C(F)(F)F)cc2)nc2cc(Oc3ccnc(-c4ncc(C(F)(F)F)[nH]4)c3)ccc21 [RAF265] + O=C(CCCCCCC(=O)Nc1ccccc1)NO [Vorinostat] (partner 1 µM)
Outline: as §1

Cell Line	relative viability (IPA-3 + Luminespib; first compound 0.2 µM)	relative viability (IPA-3 + Luminespib; first compound 0.6325 µM)	relative viability (IPA-3 + Luminespib; first compound 2 µM)	relative viability (IPA-3 + Luminespib; first compound 6.325 µM)	relative viability (IPA-3 + Luminespib; first compound 20 µM)	relative viability (IPA-3 + Dasatinib; first compound 0.2 µM)	relative viability (IPA-3 + Dasatinib; first compound 0.6325 µM)	relative viability (IPA-3 + Dasatinib; first compound 2 µM)	relative viability (IPA-3 + Dasatinib; first compound 6.325 µM)	relative viability (IPA-3 + Dasatinib; first compound 20 µM)	relative viability (Doramapimod + OSI-027; first compound 0.02 µM)	relative viability (Doramapimod + OSI-027; first compound 0.06325 µM)	relative viability (Doramapimod + OSI-027; first compound 0.2 µM)	relative viability (Doramapimod + OSI-027; first compound 0.6325 µM)	relative viability (Doramapimod + OSI-027; first compound 2 µM)	relative viability (RAF265 + Vorinostat; first compound 0.01 µM)	relative viability (RAF265 + Vorinostat; first compound 0.03162 µM)	relative viability (RAF265 + Vorinostat; first compound 0.1 µM)	relative viability (RAF265 + Vorinostat; first compound 0.3162 µM)	relative viability (RAF265 + Vorinostat; first compound 1 µM)
201T	1.07	1.02	1.08	1.05	1.14	0.576	0.57	0.604	0.616	0.65	0.629	0.785	0.71	0.782	0.781	0.975	0.966	0.998	0.974	0.994
A-427	1.02	0.855	0.999	0.803	1.02	0.682	0.632	0.634	0.713	0.72	0.435	0.498	0.578	–	0.402	0.89	0.829	0.892	0.733	0.423
ABC-1	0.723	–	0.573	–	0.29	0.666	0.477	0.536	0.708	0.58	0.613	0.451	0.433	0.655	0.51	1.34	0.853	1.3	0.982	0.644
BEN	0.387	0.439	0.386	0.576	0.472	0.471	0.35	0.323	0.342	0.283	0.317	0.309	0.33	0.236	0.316	0.569	0.586	0.6	0.662	0.544
CAL-12T	0.724	0.287	0.449	0.375	0.488	0.627	0.418	0.379	0.409	0.524	0.627	0.672	0.579	0.711	0.532	0.781	0.825	0.61	0.606	0.372
COR-L23	0.866	0.627	0.725	0.643	0.48	0.679	0.506	0.503	0.46	0.125	0.688	0.892	0.84	0.806	0.621	0.487	0.297	0.392	0.268	0.248
COR-L 105	0.866	0.858	0.771	0.826	0.97	0.401	0.34	0.305	0.332	0.272	0.799	0.745	0.703	0.771	0.612	1.03	0.896	0.845	0.725	0.495
ChaGo-K-1	0.734	0.539	0.58	0.632	0.58	0.699	0.54	0.526	0.621	0.614	0.632	0.607	0.63	0.518	0.409	0.783	0.826	0.727	0.635	0.578
EKVX	0.826	0.781	0.867	0.938	1.01	0.538	0.544	0.599	0.537	0.486	0.718	0.684	0.679	0.671	0.698	0.775	0.659	0.87	–	0.581
EMC-BAC-2	1.13	1.04	1.2	1.2	1.21	0.309	0.458	0.302	0.311	0.292	0.379	0.396	0.445	0.571	0.43	0.449	0.359	0.306	0.141	0.103
EPLC-272H	0.469	0.473	0.352	0.416	0.553	0.337	0.325	0.413	0.411	0.543	0.32	0.297	0.306	0.316	0.295	0.503	0.472	0.318	0.22	0.113
H3255	1.03	0.757	0.782	0.871	0.889	0.387	0.249	0.428	0.335	0.284	0.684	0.618	0.526	0.679	0.518	0.889	0.748	0.804	0.231	0.413
HARA	0.991	0.767	0.0423	0.889	1.08	0.264	0.245	0.286	0.348	0.277	0.482	0.371	0.392	–	0.327	0.454	0.64	0.537	0.546	0.192
HCC-15	0.625	0.209	0.253	0.514	0.417	0.682	0.605	0.548	0.596	0.471	0.688	0.645	0.68	–	0.539	0.803	0.937	0.867	0.782	0.551
HCC-44	1.12	0.995	1.21	0.947	1.25	–	–	–	–	–	0.563	0.607	0.625	0.463	0.433	1.02	1.07	1.19	1.08	1.06
HCC-78	–	–	–	–	–	0.43	0.359	0.462	0.439	0.427	0.372	0.362	0.365	0.358	0.299	0.459	0.485	0.464	0.645	0.406
HCC-366	–	–	–	–	–	0.892	0.613	0.604	0.656	0.679	0.837	0.918	0.937	1.08	0.853	0.307	0.344	0.252	0.205	0.146
